These are literature values, as cited in patent US9173863B2, “Antiviral compound and COX-2 inhibitor combination therapy for functional somatic syndromes, including combination of famciclovir and celecoxib” (INNOVATIVE MED CONCEPTS, LLC, priority 2012, dated 2015).

Structures are written as SMILES.

The data set has as its system fibromyalgia patients. The note with it: valacyclovir alone.

For the compound `CC(C)[C@H](N)C(=O)OCCOCn1cnc2c(=O)[nH]c(N)nc21` [valacyclovir], the “Treatment outcome in fibromyalgia patients” value is given as “not successful”.
